Assays:
ISC-enriched organoids [1] = assay: Primary screen, 384-well 2.5-D organoid differentiation (ENR+CD, 6 days): basal lysozyme secretion (LYZ.NS); assay type: cell-based, murine; details: primary screen; for Dose.FC.LYZ.NS: FC vs plate median; for SSMD.LYZ.NS: strictly standardized mean difference
Text: (§1) High-throughput screening.

ISC-enriched organoids [2] = assay: Primary screen, 384-well 2.5-D organoid differentiation (ENR+CD, 6 days): carbachol-induced lysozyme secretion (LYZ.S); assay type: cell-based, murine; details: primary screen; for Dose.FC.LYZ.S: FC vs plate median; for Z.LYZ.S: standard z score; for SSMD.LYZ.S: strictly standardized mean difference
Text: as §1

ISC-enriched organoids [3] = assay: Primary screen, 384-well 2.5-D organoid differentiation (ENR+CD, 6 days, Target Selective Inhibitor Library, vs whole-plate median): ATP (CellTiter-Glo 3D, CTG); details: primary screen; for Dose.FC.CTG: FC vs plate median; for SSMD.CTG: strictly standardized mean difference
[4] = dose 0.08 uM, standard z score of FC
[5] = dose 0.40 uM, standard z score of FC
[6] = dose 2.00 uM, standard z score of FC
[7] = dose 10.00 uM, standard z score of FC
[8] = Dose 10.00 uM, standard z score
[9] = 1st of the 4 dose lines of the treatment (dose not given)
[10] = 2nd of the 4 dose lines of the treatment (dose not given)
[11] = 3rd of the 4 dose lines of the treatment (dose not given)
[12] = 4th of the 4 dose lines of the treatment (dose not given)

Cc1cc2c(C(C)C)c(O)c(O)c(C=O)c2c(O)c1-c1c(C)cc2c(C(C)C)c(O)c(O)c(C=O)c2c1O [AT101]
Dose.FC.LYZ.NS (ISC-enriched organoids [1]; dose 0.08 uM, ENR+CD 6 days): −0.049 log 2 fold change
Z.LYZ.NS (ISC-enriched organoids [1]; [4]): −0.426
Dose.FC.LYZ.NS (ISC-enriched organoids [1]; dose 0.40 uM, ENR+CD 6 days): −0.068 log 2 fold change
Z.LYZ.NS (ISC-enriched organoids [1]; [5]): −0.592
Dose.FC.LYZ.NS (ISC-enriched organoids [1]; dose 2.00 uM, ENR+CD 6 days): −0.036 log 2 fold change
Z.LYZ.NS (ISC-enriched organoids [1]; [6]): −0.311
Dose.FC.LYZ.NS (ISC-enriched organoids [1]; dose 10.00 uM, ENR+CD 6 days): −0.052 log 2 fold change
Z.LYZ.NS (ISC-enriched organoids [1]; [7]): −0.452
Dose.FC.LYZ.S (ISC-enriched organoids [2]; dose 0.08 uM, ENR+CD 6 days): 0.004 log 2 fold change
Dose.FC.LYZ.S (ISC-enriched organoids [2]; dose 0.40 uM, ENR+CD 6 days): −0.013 log 2 fold change
Dose.FC.LYZ.S (ISC-enriched organoids [2]; dose 2.00 uM, ENR+CD 6 days): −0.085 log 2 fold change
Dose.FC.LYZ.S (ISC-enriched organoids [2]; dose 10.00 uM, ENR+CD 6 days): −0.061 log 2 fold change
Dose.FC.CTG (ISC-enriched organoids [3]; dose 0.08 uM, ENR+CD 6 days): −0.198 log 2 fold change
Z.CTG (ISC-enriched organoids [3]; [4]): −0.472
Dose.FC.CTG (ISC-enriched organoids [3]; dose 0.40 uM, ENR+CD 6 days): 0.019 log 2 fold change
Z.CTG (ISC-enriched organoids [3]; [5]): 0.044
Dose.FC.CTG (ISC-enriched organoids [3]; dose 2.00 uM, ENR+CD 6 days): −0.216 log 2 fold change
Z.CTG (ISC-enriched organoids [3]; [6]): −0.515
Dose.FC.CTG (ISC-enriched organoids [3]; dose 10.00 uM, ENR+CD 6 days): −0.056 log 2 fold change
Z.CTG (ISC-enriched organoids [3]; [7]): −0.133

Nc1cccc2c1CN(C1CCC(=O)NC1=O)C2=O (centres unmarked) [Lenalidomide (CC-5013)]
Dose.FC.LYZ.NS (ISC-enriched organoids [1]; Dose 0.08 uM): 0.147 log 2 fold change
Z.LYZ.NS (ISC-enriched organoids [1]; Dose 0.08 uM, standard z score): 1.283
Dose.FC.LYZ.NS (ISC-enriched organoids [1]; Dose 0.40 uM): 0.099 log 2 fold change
Z.LYZ.NS (ISC-enriched organoids [1]; Dose 0.40 uM, standard z score): 0.863
Dose.FC.LYZ.NS (ISC-enriched organoids [1]; Dose 2.00 uM): 0.071 log 2 fold change
Z.LYZ.NS (ISC-enriched organoids [1]; Dose 2.00 uM, standard z score): 0.615
Dose.FC.LYZ.NS (ISC-enriched organoids [1]; Dose 10.00 uM): −0.041 log 2 fold change
Z.LYZ.NS (ISC-enriched organoids [1]; [8]): −0.360
SSMD.LYZ.NS (ISC-enriched organoids [1]; [9]): 1.215
SSMD.LYZ.NS (ISC-enriched organoids [1]; [10]): 0.674
SSMD.LYZ.NS (ISC-enriched organoids [1]; [11]): 0.472
SSMD.LYZ.NS (ISC-enriched organoids [1]; [12]): −0.318
Dose.FC.LYZ.S (ISC-enriched organoids [2]; Dose 0.08 uM): 0.099 log 2 fold change
Dose.FC.LYZ.S (ISC-enriched organoids [2]; Dose 0.40 uM): 0.176 log 2 fold change
Dose.FC.LYZ.S (ISC-enriched organoids [2]; Dose 2.00 uM): 0.025 log 2 fold change
Dose.FC.LYZ.S (ISC-enriched organoids [2]; Dose 10.00 uM): −0.045 log 2 fold change
Z.LYZ.S (ISC-enriched organoids [2]; [9]): 0.639
Z.LYZ.S (ISC-enriched organoids [2]; [10]): 1.137
Z.LYZ.S (ISC-enriched organoids [2]; [11]): 0.162
Z.LYZ.S (ISC-enriched organoids [2]; [12]): −0.290
SSMD.LYZ.S (ISC-enriched organoids [2]; [9]): 0.593
SSMD.LYZ.S (ISC-enriched organoids [2]; [10]): 0.873
SSMD.LYZ.S (ISC-enriched organoids [2]; [11]): 0.193
SSMD.LYZ.S (ISC-enriched organoids [2]; [12]): −0.298
Dose.FC.CTG (ISC-enriched organoids [3]; Dose 0.08 uM): 0.046 log 2 fold change
Z.CTG (ISC-enriched organoids [3]; Dose 0.08 uM, standard z score): 0.110
Dose.FC.CTG (ISC-enriched organoids [3]; Dose 0.40 uM): −0.016 log 2 fold change
Z.CTG (ISC-enriched organoids [3]; Dose 0.40 uM, standard z score): −0.037
Dose.FC.CTG (ISC-enriched organoids [3]; Dose 2.00 uM): −0.250 log 2 fold change
Z.CTG (ISC-enriched organoids [3]; Dose 2.00 uM, standard z score): −0.596
Dose.FC.CTG (ISC-enriched organoids [3]; Dose 10.00 uM): −0.316 log 2 fold change
Z.CTG (ISC-enriched organoids [3]; [8]): −0.754
SSMD.CTG (ISC-enriched organoids [3]; [9]): 0.169
SSMD.CTG (ISC-enriched organoids [3]; [10]): −0.049
SSMD.CTG (ISC-enriched organoids [3]; [11]): −0.710
SSMD.CTG (ISC-enriched organoids [3]; [12]): −0.802
